Series [1] concerns T. cruzi epimastigotes (Dm28c strain). Put plainly: Flow cytometry analysis of the cell cycle (DNA content). In kind it is cell-based, Trypanosoma cruzi. The conditions noted are these: 48 h. How it is done: The cultures treated with CUR, DMC and BDMC at a concentration of 100 μM led to an accumulation of, respectively, 45%, 52% and 40% of cells in the G2 phase, while in the non-treated cells, G2 population was 20%. The ability to arrest cells in the G2/M phase is a characteristic of microtubule-interacting agents. For this reason, we used paclitaxel as positive control, a known microtubule drug that is active against Trypanosomatidae organisms. Consistently with its action on microtubules, paclitaxel promoted an accumulation of 57% of cells in the G2 phase (Fig 9). Thus, the effects of curcuminoids in the cell cycle can be explained, at least partially, by the disturbance of microtubules, in agreement with the mechanism of interaction with tubulin proposed by the electron microscopy experiments. The arising of sub-G1 peaks possibly correspond to apoptotic cells, what is more prominent in paclitaxel than in the curcuminoids treated cultures and the small sub-G1populations indicate that curcuminoids promote low apoptosis (Fig 9).
Fig 9 Percentage of cells in different phases of cell cycle. Cells were treated with CUR and DMC at 10, 50 and 100 μM concentrations and with 100 μM BDMC. Paclitaxel (20 μM) was employed as positive control, and DMSO 0.02% as negative control. Results are the mean of the triplicates with standard deviation represented by error bars. Statistical significance relative to control * P<0.05, ** P<0.01 and *** P<0.001. The data shown were obtained from three independent experiments.
Epismatigotes forms of T. cruzi (Dm28c strain) were grown at 28°C in BHI medium at a concentration of 2x10^6 cells.mL^-1 in 12-well culture plates (TPP™, Switzerland). Test compounds (CUR, DMC and BMDC) were added in triplicate at concentrations of 10, 50 and 100 μM. The controls used were the vehicle (DMSO 0.02%) and paclitaxel at 20 μM concentration. After 48 h of incubation, parasites were fixed in ethanol 70% for 30 min at -20°C. Next, cells were centrifuged at 200 rcf for 8 min and washed with PBS. Then, the samples were incubated for 10 min with a permeabilization buffer (0.2 M Na2HPO4 and 0.005% Triton-X, pH 7.8). Finally, cells were centrifuged at 200 rcf for 8 min and stained in a solution of 50 μg.mL^-1 propidium iodide (PI) and 0.2 μg.mL^-1 RNAse for 30 min at room temperature. DNA content was analyzed measuring PI fluorescence in a BD […] cytometer (Becton Dickinson Company, USA) at 488 nm excitation wavelength and 585/40 nm emission filter.
Supplementary file pone.0162926.s006.tif: S6 Fig Representative fluorescence histograms showing DNA content of cell-cycle phases (Sub-G1, G1, S and G2) of parasites (Dm28c strain). […]
(In general: In flow cytometry, cells or beads pass a laser one at a time.)

Series [2] deals with Sterol 14α-demethylase (CYP51). Put plainly: Sterol content (lanosterol/ergosterol ratio) of treated epimastigotes by RP-HPLC. It is filed as cell-based, Trypanosoma cruzi. The method, then:
Since the detachment of the flagellar membrane was reported in T. cruzi and L. amazonensis treated with sterol biosynthesis inhibitors, the results obtained in microscopy study led us to investigate the sterol content of epimastigotes treated with CUR. Sterol 14α-demethylase (CYP51) is the enzyme involved in conversion of lanosterol to ergosterol in the parasite cell by oxidative removal of the sterol 14α-methyl group, being a key step in the biosynthesis of cell membrane 14 α-demethylated sterols and consequently in the maintenance of the cell viability. Thus, this enzyme is a promising target for chemotherapy of Chagas disease. The method reported by Pinto and co-workers for steroid determination on fungi was adapted to T. cruzi epimastigotes. After saponification followed by n-hexane extraction of a T. cruzi epimastigote pellet cultivated in the presence of two different concentrations of CUR, the organic layer was concentrated and submitted to RP-HPLC analysis (as shown in S5 Fig). […] It seems that in both treatments the parasite membrane-cytoskeleton linkage has been compromised.
6x10^6 epimastigotes of T. cruzi (Dm28c strain) were grown for 7 days in 30mL of BHI culture medium at 26°C. Some cultures were treated with curcumin (CUR, 5 and 10 μM), posaconazole (0.05 and 0.1 μM). The cultures were submitted to centrifugation at 2100 rpm for 10 minutes. […]

Series [3] deals with T. cruzi epimastigotes (Dm28c strain). Put plainly: Anti-epimastigote effect (proliferation/survival, counting of viable forms). In kind it is cell-based, Trypanosoma cruzi. As to conditions: for activity on proliferation/survival of epimastigotes (in words): 100, 50, 25 and 2 μM; for IC50: read-out: IC50 T. cruzi. How it is done: The four natural compounds (CUR, DMC, BDMC and CC) were evaluated on the proliferation/survival of T. cruzi epimastigotes (Dm28c strain) in four different concentrations (100, 50, 25 and 2 μM). The parasites were cultivated for 7 days in BHI (Brain Heart Infusion) medium supplemented with 10% (v/v) fetal bovine serum. Controls were incubated solely and with 0.02% DMSO and the cultures were readily incubated with the natural compounds. Mobile epimastigote forms were considered as viable forms, and were counted on Neubauer chambers using phase contrast microscopy.
Epimastigotes of T. cruzi (Dm28c strain) were cultured at 27°C in Bacto™ Brain Heart infusion (BHI, Becton Dickinson Company, USA) supplemented with 10 μg.mL^-1 hemin, 0.02 g.L^-1 folic acid (from Sigma-Aldrich, USA) and 10% (v/v) of heat inactivated fetal bovine serum (FCS, Gibco/Life technologies).
Epimastigotes forms of T. cruzi, Dm28c strain (2x10^5 cells.mL^-1), were grown for 7 days in BHI culture medium at 26°C. Some cultures were treated with curcumin (CUR), demethoxycurcumin (DMC), bisdemethoxycurcumin (BDMC) or cyclocurcumin (CC) at concentrations of 100, 50, 25 and 2 μM. Viable forms were counted in Neubauer chambers under phase contrast microscopy using 40X objectives. Data representing three independent experiments.
Supplementary file pone.0162926.s002.tif: S2 Fig T. cruzi epimastigotes (Dm28c strain) were cultivated for 7 days in BHI (Brain Heart Infusion) culture medium supplemented with hemin, folic acid and 10% fetal bovine serum at 26°C, and readily treated with CUR, DMC, BDMC and CC at the indicated concentrations ranging from 2 to 100μM. Viable forms were counted on Neubauer chambers under phase microscopy at the seventh day. The data presented were obtained from three representative independent experiments. (TIF) Click here for additional data file.

The next series relates to MCF-7 tumor cells. Also on record: method as in PMID 9714342. As to conditions: cited from earlier work.
Series [4] deals with Peritoneal macrophages (Mø). It is filed as cell-based. The conditions noted are these: murine peritoneal macrophages, 48 h, trypan blue. How it is done:
(§1) The natural products have been subjected to a cytotoxicity assay on two distinct murine cell types. These compounds were tested upon macrophages (Mø), which are host cells during T. cruzi infection and splenocytes as lymphocytes are highly sensitive to external agents. The maintenance of cell viability at presence of the curcuminoids may indicate their low toxicity to mammalian cells. Peritoneal macrophages harvested from Balb/c mice were treated for 48 hours with concentrations of each test substance (S3 Fig). Splenocyte viability assays were performed in cells obtained from BALB/c mice and grown from a 5x10^5 cells.mL^-1 suspension (S4 Fig). For both cell types, viability was assessed by the trypan blue dye exclusion method, because colorimetric methods such as XTT were not suitable due to influence of the curcumin chromophoric properties. The results obtained on the evaluation of CUR, DMC, BDMC and CC against T. cruzi epimastigotes as well as the results of two host cell types treated with a 100 μM concentration of each compound are summarized in Table 1. […]
Supplementary file pone.0162926.s003.tif: S3 Fig Peritoneal macrophages obtained from BALB/c mice were cultured in triplicates at concentration of 5x10^5cells.mL^-1. […] Cell viability was assessed by exclusion method using trypan blue. […]

The next series has as its system Splenocytes. It is filed as cell-based. As to conditions: murine splenocytes, 48 h, trypan blue. The method, then:
as §1, with “properties.” for “properties. The results obtained on the evaluation of CUR, DMC, BDMC and CC against T. cruzi epimastigotes as well as the results of two host cell types treated with a 100 μM concentration of each compound are summarized in Table 1.”
Splenic lymphocytes were obtained from male BALB/c mice and plated at 5x10^5 cells.mL^-1 in triplicate. […] Viability was evaluated by the exclusion method using trypan blue and the data shown is representative of three independent experiments.
Supplementary file pone.0162926.s004.tif: S4 Fig Lymphocytes were obtained from the spleen of BALB/c mice and cultivated at concentration of 5x10^5 cells.mL^-1. […] Cell viability was assessed by exclusion method using trypan blue. […]

Where [5] appears, read: Trypanosoma cruzi, 168 h, epimastigotes, Dm28c strain, 7 days.

These results are taken from PMC5033595, “The Effectiveness of Natural Diarylheptanoids against Trypanosoma cruzi: Cytotoxicity, Ultrastructural Alterations and Molecular Modeling Studies” (PLoS ONE, 2016).

Where two headings read alike, the source gives them in different places.

Consider `COc1cc(/C=C/C(=O)CC(=O)/C=C/c2ccc(O)c(OC)c2)ccc1O` [CUR, Curcumin], for which the “cells in the G2 phase” value in series [1] (100 μM, non-treated cells 20%) is 45%. The “lanosterol/ergosterol ratio vs untreated control” value in series [2] (CUR 5 and 10 μM, 7 days) is listed as “no significant difference”. The “activity on proliferation/survival of epimastigotes (in words)” value (“activity on proliferation/survival” for short) in series [3] (7 days) is reported as “active”. Also, the IC50 (in general, the concentration at which inhibition is half-maximal) in series [3] (Trypanosoma cruzi, 168 h) was 10.1 µM.

As to `COc1cc(/C=C/C2=CC(=O)CC(c3ccc(O)c(OC)c3)O2)ccc1O` (centres unmarked) [CC, cyclocurcumin], the “inhibition of MCF-7 tumor cells proliferation” value in the series on MCF-7 tumor cells was “inactive”. Further, the “activity on proliferation/survival” value in series [3] (7 days) is “inactive”. The IC50 in series [3] (setting [5]) is > 100 µM.

Turning to `CC[C@@H]([C@H](C)O)n1ncn(-c2ccc(N3CCN(c4ccc(OC[C@@H]5CO[C@@](Cn6cncn6)(c6ccc(F)cc6F)C5)cc4)CC3)cc2)c1=O` [posaconazole, reference compound], the “lanosterol/ergosterol ratio vs untreated control” value in series [2] (posaconazole 0.05 and 0.1 μM, positive control) is “significant increase”.

For the compound `O=C(/C=C/c1ccc(O)cc1)CC(=O)/C=C/c1ccc(O)cc1` [BDMC, bisdemethoxycurcumin], the “cells in the G2 phase” value in series [1] (100 μM, non-treated cells 20%) amounted to 40%. Besides, in series [3] (7 days), the “activity on proliferation/survival” value is on record as “active”. The IC50 in series [3] (setting [5]) came to 45.3 µM.

As for demethoxycurcumin [DMC], the “cells in the G2 phase” value in series [1] (100 μM, non-treated cells 20%) amounted to 52%. Moreover, the “LD50 Mø” value in series [4] is > 100 µM. Moreover, in the series with Splenocytes, the “LD50 Splenocytes” value is > 100 µM. For the same compound, in series [3] (7 days), the “activity on proliferation/survival” value was “active”. In addition, in series [3] (epimastigotes, Dm28c strain, 7 days), the IC50 was 11.1 µM.

Regarding `CC(=O)O[C@H]1C(=O)[C@@]2(C)[C@H]([C@H](OC(=O)c3ccccc3)[C@]3(O)C[C@H](OC(=O)[C@H](O)[C@@H](NC(=O)c4ccccc4)c4ccccc4)C(C)=C1C3(C)C)[C@]1(OC(C)=O)CO[C@@H]1C[C@@H]2O` [paclitaxel, reference compound], the “cells in the G2 phase” value in series [1] (20 μM, positive control) is reported as 57%.
